Measurements taken from patent publication US9682025B2, “Combination of active agents for oral administration for improving the quality of nails” (NUTRICOS TECHNOLOGIES, priority 2013, dated 2017).

Tested on: metalloprotease 9 (MMP-9)
Test: Basal synthesis/release of MMP-9 by normal human epidermal keratinocytes (ELISA of culture supernatants)
Assay type: cell-based
Details: NHEK; for % of basal synthesis/release of MMP-9 by keratinocytes: 24 hours incubation; for effect on the basal level of synthesis and/or release of MMP-9 (in words): doses of Table I
Procedure: This test was performed on cells cultured at 37° C., 5% CO2. The culture medium is Keratinocyte-SFM supplemented with epidermal growth factor (EGF) at 0.25 ng/ml, pituitary extract (PE) at 25 μg/ml and gentamicin at 25 μg/ml. […] At the end of this incubation, the culture supernatants were collected and stored so as to assay the amounts of MMP-9 secreted using the ELISA R&D Systems assay kit of reference DY911. The inter-group comparisons were performed using the unpaired bilateral Student's t-test.

| SMILES | % of basal synthesis/release of MMP-9 by keratinocytes (cysteine 1.2 μg/ml) | % of basal synthesis/release of MMP-9 by keratinocytes (petroselinic acid 0.1 μM) | effect on the basal level of synthesis and/or release of MMP-9 (in words) | % of basal synthesis/release of MMP-9 by keratinocytes (taurine 1.2 μg/ml) |
| --- | --- | --- | --- | --- |
| N[C@@H](CS)C(=O)O [Cysteine] | −12% |  |  |  |
| CCCCCCCCCCC/C=C\CCCCC(=O)O [Petroselinic acid, C18 delta-6-cis-octadecenoic acid] |  | −12% | no inhibitory activity |  |
| NCCS(=O)(=O)O [Taurine] |  |  | reverse and moderate tendency | +11% |
